Data: patent publication US6140360A, “Antifungal agent” (TOA Gosei Co., Ltd., priority 1996, dated 2000)
Converted amounts (≈) assume the structure as drawn. Like-named read-outs stand apart in the source and are kept apart here.

What was measured:
[1] = test system: Candida albicans; assay: in vitro antifungal activity (MIC); type: cell-based
Protocol: Using Candida albicans, Aspergillus niger, Aspergillus fumigatus, and Cryptococcus neoformans as test fungi, in vitro antifungal activities were determined to confirm the antifungal activities of cryptoporic acids A, B, and D. The test method and the results are shown below.
The fungal strains used for this test were standard strains provided by Teikyo University, Institute of Medical Mycology. Drug sensitivity was measured using Yeast Morphology Agar (Difco) as media.
The test fungi were spread over slant made of a potato dextrose agar medium (NissuiSeiyaku) and cultured at 30° C. for one day (Candida, Cryptococcus) or four days (Aspergillus niger, Aspergillus neoformans). After culturing, fungi on the slant were washed away with sterile physiological saline supplemented with 0.1% Tween 80. The solution was passed through a filter with 15 μm pores. The fungi were counted on a hemocytometer and adjusted to 10^5 CFU/ml to serve as an inoculation solution. A 0.02 ml portion of this solution was inoculated into Yeast Morphology Agar containing test agents by two-fold serial dilution and cultured at 30° C. for 1 or 4 days.
Antifungal effect was judged with naked eyes. Concentrations at which evident inhibition of growth was observed compared with control media containing no drug were taken as MIC values.
Candida albicans, Aspergillus niger, Aspergillus fumigatus, and Cryptococcus neoformans were used as test fungi. The test for in vitro antifungal activity was conducted in the same manner as in 1 above to confirm antifungal activity.
3. In vitro antifungal activities of cryptoporic acid derivatives represented by formula 3 and a commercially available antifungal agent, Diflucan, were tested using Candida albicans as test fungi in the same manner.

[2] = test system: Aspergillus fumigatus; assay: in vitro antifungal activity (MIC); type: cell-based; conditions: Table 2, Yeast Morphology Agar, 30° C.
Protocol: Using Candida albicans, Aspergillus niger, Aspergillus fumigatus, and Cryptococcus neoformans as test fungi, in vitro antifungal activities were determined to confirm the antifungal activities of cryptoporic acids A, B, and D. The test method and the results are shown below. The fungal strains used for this test were standard strains provided by Teikyo University, Institute of Medical Mycology. Drug sensitivity was measured using Yeast Morphology Agar (Difco) as media. The test fungi were spread over slant made of a potato dextrose agar medium (NissuiSeiyaku) and cultured at 30° C. for one day (Candida, Cryptococcus) or four days (Aspergillus niger, Aspergillus neoformans). After culturing, fungi on the slant were washed away with sterile physiological saline supplemented with 0.1% Tween 80. The solution was passed through a filter with 15 μm pores. The fungi were counted on a hemocytometer and adjusted to 10^5 CFU/ml to serve as an inoculation solution. A 0.02 ml portion of this solution was inoculated into Yeast Morphology Agar containing test agents by two-fold serial dilution and cultured at 30° C. for 1 or 4 days. Antifungal effect was judged with naked eyes. Concentrations at which evident inhibition of growth was observed compared with control media containing no drug were taken as MIC values. […]

[3] = test system: Candida albicans; assay: Infection-Treating Test, Candida albicans infected mice; type: in vivo, mice (ICR); conditions: oral in sesame oil, first dose 1 hour after i.v. inoculation (1.0×10^6 CFU/mouse), once a day, total seven days, survival, Weil method
Protocol: (§1) Candida albicans (1.0×10^6 CFU/mouse) or Aspergillus fumigatus (2.0×10^6 CFU/mouse) was suspended in physiological saline, and a 0.2 ml portion of each solution was injected into healthy grown mice (ICR, 4 week-old, female, 19-22 g, Nihon CLEA) via the caudal vein to establish infection. Cryptoporic acid H was dissolved in sesame oil in prescribed concentrations, and a 0.2 ml portion was orally administered per dose to the mice through a stomach probe. The first administration was conducted 1 hour after inoculation of fungi. Thereafter, administration was conducted six times (once a day every 24 hours; for a total of seven days). only the base (0.2 ml) was administered to the control group. Treatment effectiveness was evaluated with ED50 by using the Weil method from the survival rate of treated mice when all the control animals died.

[4] = test system: Aspergillus fumigatus; assay: Infection-Treating Test, Aspergillus fumigatus infected mice; type: in vivo, mice (ICR); conditions: oral in sesame oil, first dose 1 hour after i.v. inoculation (2.0×10^6 CFU/mouse), once a day, total seven days, survival, Weil method
Protocol: as §1

[5] = Solubility; type: physicochemical; conditions: in methanol, acetone, and ethyl acetate
[6] = 24 h, Table 1, Yeast Morphology Agar, 30° C., 1 day, read-out: MIC (Candida albicans)

Work on `C=C1CC[C@H]2C(C)(C)CCC[C@]2(C)[C@H]1COC(C(=O)OC)C(CC(=O)O)C(=O)OC` (stereo partly drawn) [Cryptoporic acid A] yielded an MIC [1, 6] of 25 µg/mL (≈ 58.9 µM).
For `C=C1CC[C@H]2[C@](C)(CO)CCC[C@]2(C)[C@H]1COC(C(=O)OC)C(CC(=O)O)C(=O)OC` (stereo partly drawn) [Cryptoporic acid B], the MIC [2] was 200 µg/mL (≈ 454 µM) and the MIC [1, 6] was 25 µg/mL (≈ 56.7 µM).
With `C=C1CCC2C3(C)CCCC2(C)C1COC(C(=O)OC)C(CC(=O)O)C(=O)OCC1(C)CCCC2(C)C(COC(C(=O)OC)C(CC(=O)O)C(=O)OC3)C(=C)CCC12` (stereo not drawn) [Cryptoporic acid D] the MIC [1, 6] was 100 µg/mL (≈ 122 µM).
`C=C1CC[C@H]2C(C)(C)CCC[C@]2(C)[C@H]1COC(C(=O)O)C(CC(=O)O)C(=O)O` (stereo partly drawn) [Cryptoporic acid H] gave an ED50 [3] of 0.32 mg/kg and an ED50 [4] of 2 mg/kg.
For `OC(Cn1cncn1)(Cn1cncn1)c1ccc(F)cc1F` [Diflucan, reference compound], the MIC ([1]; TIMM1623) was 25 µg/mL (≈ 81.6 µM).
With `C=C1CC[C@H]2C(C)(C)CCC[C@]2(C)[C@H]1COC(C(=O)OC)C(CC(=O)O)C(=O)O[C@H]1CC(C)(C)[C@@H]2CC=C(C=O)[C@H](C=O)[C@@]2(C)C1` (stereo partly drawn) [TG 101] the Solubility [5] was “Easily soluble”.
In the case of `C=C1CC[C@H]2C(C)(C)CCC[C@]2(C)[C@H]1COC(C(=O)OC)C(CC(=O)O)C(=O)O[C@H]1CC(C)(C)[C@@H]2CC=C3COC(O)[C@@H]3[C@@]2(C)C1` (stereo partly drawn) [TG 103], the Solubility [5] is reported as “Easily soluble”.
